Laboratory results reported in US20220315895A1, “METHODS OF MAKING OLIGOPOTENT AND UNIPOTENT PRECURSORS” (Transfusion Health, LLC, priority 2019, published 2022).

Experiments:
[1] = test system: CD34+ cells from cord blood; assay: Expansion of cord blood CD34+ cells, seven-day culture (Example 35); format: cell-based, human; conditions: normalized fold change days 1 to 7
Procedure: CD34+ cells from cord blood were purchased from STEMCELL Technologies. Primary human CD34+ cells were isolated from cord blood samples using positive immunomagnetic separation techniques. Cells were thawed and gradually brought to room temperature. Samples were washed, then placed in overnight culture in StemSpan with 100 ng/ml each of FLT3L, TPO, SCF, and TL-6. Eighteen to twenty-four hours later (day 1), cells were counted and immunophenotyped (flow cytometry on an Invitrogen Attune N×T cytometer).
Approximately 1000 live cells were plated into each well of 96-well plates; exact cell numbers dispensed per well were quantified with flow cytometry for later calculations.
Media for testing compounds of Formula I was prepared using Alpha MEM without phenol red, 10% (v/v) heat inactivated fetal bovine serum. Culture conditions also included an antibiotic solution that includes penicillin, streptomycin, and amphotericin B to avoid contamination. Additional media components and concentrations used for the compounds tested are described in Table 5.
All incubations for this experiment took place at 3% oxygen (controlled by nitrogen) and 5% CO2. Following seven days of culture, cells from wells were collected and phenotypes were analyzed (flow cytometry on an Invitrogen Attune N×T cytometer).
Table 6 below, summarizes the relative expansive effect of the screened compounds at the indicated concentration. The data in Table 6 is reported as the relative expansive effect. The relative expansive effect is a normalized value of the fold changes shown in each of the figures. It is calculated as shown below: […]

[2] = test system: CD34+ cells isolated from donor peripheral blood; assay: Enhancement of HSCs derived from non-mobilized peripheral blood with compounds of Formula I (Example 33); format: cell-based; conditions: normalized fold change days 2 to 7
Procedure: CD34+ cells were isolated from donor peripheral blood. Standard buffy coat separation using ficoll paque was performed. Cells were pelleted and incubated with unlabeled CD64 antibody. Cells then underwent negative depletion using biotinylated CD2, CD3, CD4, CD5, CD8, CD11b, CD14, CD16, CD19, CD20, CD45RA, CD56, CD235 (in some examples CD15, CD25 and other lineage specific antibodies may also be used). Cells which bind these antibodies are depleted using streptavidin beads. The enriched progenitor pool then undergoes cell sorting for CD34+.
Isolated CD34+ cells were incubated in an in vitro culture media of Alpha MEM without phenol red with 10% (v/v) heat inactivated fetal bovine serum (FBS). When testing compounds of Formula I, two internal controls were used: a positive control (+SF conditions) and a baseline control (i.e. basic conditions (“cytokines only”)). The media components and concentrations used for the compounds tested are described in [0563] Table 2. The culture also included an antibiotic solution that includes penicillin, streptomycin, and amphotericin B to avoid contamination. Controls were included because the amount of expansion in samples obtained varies from individual to individual.
(§1) Cultures were incubated at […] (controlled by nitrogen) and 5% CO2.
(§2) Small molecule components were added separately and fresh each time the media needs to be refreshed. Cytokines can be stored together. Media renewal should occur at least every few days.
On the days indicated one-half of the volume of the cell culture was removed for data analysis (flow cytometry using a BD FACS ARIA II). The culture volume was replenished with fresh media according to the conditions tested. The data reported accounts for the dilution factor introduced in this procedure.
Separate experiments were performed for each compound tested (Compound 1.001-1.023).
Table 3, below, summarizes the relative expansive effect of Compound 1.001 to 1.023 (sample compounds) at the indicated concentration. The data in Table 3 is reported as the relative expansive effect. The relative expansive effect is a normalized value of the fold changes shown in each of FIG. 1-FIG. 23. It is calculated as shown below: […]

[3] = test system: hematopoietic stem cells derived from cord blood; assay: Enhancement of HSCs derived from cord blood with Compound 1.008 (Example 34); format: cell-based
Procedure: A frozen cord blood sample was thawed and gradually brought to room temperature. Thawed cord blood was incubated in an in vitro culture media of Alpha MEM without phenol red, 10% (v/v) heat inactivated fetal bovine serum (FBS). Four samples were tested: Base conditions, +SF Conditions, +1.008 Conditions, and +1.008/+ER conditions. The components included in each condition is described in [0574] Table 4. Each condition tested also included an antibiotic solution that includes penicillin, streptomycin, and amphotericin B to avoid contamination.
as §1, §2
On the days indicated varying amounts of the cell culture was removed for data analysis (flow cytometry using a BD FACS ARIA II) and to avoid overcrowding of cells. The culture volume was replenished with fresh media according to the conditions tested. The data reported accounts for the dilution factor introduced in this procedure.

[4] = +1.008 conditions (Compound 1.008 250 nM), 19 days in culture

CC(C)(C)C(=O)Nc1cc2c(cc1O)-c1ccccc1C2=O [Compound 1.014, N-(3-hydroxy-9-oxo-9H-fluoren-2-yl)pivalamide]
CD90 effect (relative expansive effect on CD34+/CD133+/CD90+ cells) ([1]; sample compound 8 μM): ++ (1.44 ≤ x < 1.8) | CD133 effect (relative expansive effect on CD34+/CD133+ cells) ([1]; sample compound 8 μM): ++ (1.44 ≤ x < 1.8) | CD90 effect (relative expansive effect on CD34+/CD133+/CD90+ cells) ([2]; sample compound 8 μM): +++ (0.55 ≤ x < 0.9) | CD133 effect (relative expansive effect on CD34+/CD133+ cells) ([2]; sample compound 8 μM): ++ (0.2 ≤ x < 0.55)

CC(=O)Nc1ccc2c(c1)C(OC(C)=O)c1ccccc1-2 (stereo not drawn) [Compound 1.022, 2-acetamido-9H-fluoren-9-yl acetate]
CD90 effect (relative expansive effect on CD34+/CD133+/CD90+ cells) ([1]; sample compound 8 μM): ++ (1.44 ≤ x < 1.8) | CD133 effect (relative expansive effect on CD34+/CD133+ cells) ([1]; sample compound 8 μM): +++ (1.8 ≤ x < 2.16) | CD90 effect (relative expansive effect on CD34+/CD133+/CD90+ cells) ([2]; sample compound 32 μM): +++++ (1.25 ≤ x) | CD133 effect (relative expansive effect on CD34+/CD133+ cells) ([2]; sample compound 32 μM): +++ (0.55 ≤ x < 0.9)

CC(C)(C)C(=O)Nc1ccc2c(c1)C(=O)c1cc(O)ccc1-2 [Compound 1.007, N-(7-hydroxy-9-oxo-9H-fluoren-2-yl)pivalamide]
CD90 effect (relative expansive effect on CD34+/CD133+/CD90+ cells) ([1]; sample compound 2 μM): ++++ (2.16 ≤ x < 2.52) | CD133 effect (relative expansive effect on CD34+/CD133+ cells) ([1]; sample compound 2 μM): ++++ (2.16 ≤ x < 2.52) | CD90 effect (relative expansive effect on CD34+/CD133+/CD90+ cells) ([2]; sample compound 4 μM): ++++ (0.9 ≤ x < 1.25) | CD133 effect (relative expansive effect on CD34+/CD133+ cells) ([2]; sample compound 4 μM): +++ (0.55 ≤ x < 0.9)

CC(C)(C)C(=O)Nc1ccc2c(c1)C(=O)c1cc(N)ccc1-2 [Compound 1.008, N-(7-amino-9-oxo-9H-fluoren-2-yl)pivalamide]
CD90 effect (relative expansive effect on CD34+/CD133+/CD90+ cells) ([1]; sample compound 8 μM): ++++ (2.16 ≤ x < 2.52) | CD133 effect (relative expansive effect on CD34+/CD133+ cells) ([1]; sample compound 8 μM): ++++ (2.16 ≤ x < 2.52) | CD90 effect (relative expansive effect on CD34+/CD133+/CD90+ cells) ([2]; sample compound 4 μM): +++++ (1.25 ≤ x) | CD133 effect (relative expansive effect on CD34+/CD133+ cells) ([2]; sample compound 4 μM): +++ (0.55 ≤ x < 0.9) | fold increase in CD34+/CD133+ cells from day 2 [3, 4]: greater than 50 fold | fold increase in CD34+/CD133+/CD90+ cells from day 2 [3, 4]: ~20 fold | fold increase in CD34+/CD133+/CD90+/CD38low/− cells from day 2 [3, 4]: > 12 fold | fold increase in CD34+ cells from day 2 ([3]; +1.008 conditions (Compound 1.008 250 nM, TPO, SCF, FLT3L), 19 days in culture): greater than 50 fold

CC(C)(C)C(=O)Nc1ccc2c(c1)/C(=N/O)c1ccccc1-2 [Compound 1.013, N-(9-(hydroxyimino)-9H-fluoren-2-yl)pivalamide]
CD90 effect (relative expansive effect on CD34+/CD133+/CD90+ cells) ([1]; sample compound 2 μM): +++++ (2.52 ≤ x) | CD133 effect (relative expansive effect on CD34+/CD133+ cells) ([1]; sample compound 2 μM): ++++ (2.16 ≤ x < 2.52) | CD90 effect (relative expansive effect on CD34+/CD133+/CD90+ cells) ([2]; sample compound 4 μM): +++ (0.55 ≤ x < 0.9) | CD133 effect (relative expansive effect on CD34+/CD133+ cells) ([2]; sample compound 4 μM): +++ (0.55 ≤ x < 0.9)

CC(C)(C)C(=O)Nc1ccc2c(c1)C(=O)c1ccccc1-2 [Compound 1.005, N-(9-oxo-9H-fluoren-2-yl)pivalamide]
CD90 effect (relative expansive effect on CD34+/CD133+/CD90+ cells) ([1]; sample compound 0.5 μM): ++ (1.44 ≤ x < 1.8) | CD133 effect (relative expansive effect on CD34+/CD133+ cells) ([1]; sample compound 0.5 μM): ++ (1.44 ≤ x < 1.8) | CD90 effect (relative expansive effect on CD34+/CD133+/CD90+ cells) ([2]; sample compound 0.125 μM): +++ (0.55 ≤ x < 0.9) | CD133 effect (relative expansive effect on CD34+/CD133+ cells) ([2]; sample compound 0.125 μM): ++ (0.2 ≤ x < 0.55)

CC(C)(C)C(=O)Nc1ccc2c(c1)C(N)c1ccccc1-2 (stereo not drawn) [Compound 1.015, N-(9-amino-9H-fluoren-2-yl)pivalamide]
CD90 effect (relative expansive effect on CD34+/CD133+/CD90+ cells) ([1]; sample compound 0.5 μM): ++ (1.44 ≤ x < 1.8) | CD133 effect (relative expansive effect on CD34+/CD133+ cells) ([1]; sample compound 0.5 μM): ++ (1.44 ≤ x < 1.8) | CD90 effect (relative expansive effect on CD34+/CD133+/CD90+ cells) ([2]; sample compound 2 μM): ++++ (0.9 ≤ x < 1.25) | CD133 effect (relative expansive effect on CD34+/CD133+ cells) ([2]; sample compound 2 μM): +++ (0.55 ≤ x < 0.9)

CC(=O)Nc1ccc2c(c1)C(=O)c1ccccc1-2 [Compound 1.009, N-(9-oxo-9H-fluoren-2-yl)acetamide]
CD90 effect (relative expansive effect on CD34+/CD133+/CD90+ cells) ([1]; sample compound 0.5 μM): +++ (1.8 ≤ x < 2.16) | CD133 effect (relative expansive effect on CD34+/CD133+ cells) ([1]; sample compound 0.5 μM): +++ (1.8 ≤ x < 2.16) | CD90 effect (relative expansive effect on CD34+/CD133+/CD90+ cells) ([2]; sample compound 2 μM): +++++ (1.25 ≤ x) | CD133 effect (relative expansive effect on CD34+/CD133+ cells) ([2]; sample compound 2 μM): +++++ (1.25 ≤ x)

CCOC1c2ccccc2-c2ccc(NC(C)=O)cc21 (stereo not drawn) [Compound 1.021, N-(9-ethoxy-9H-fluoren-2-yl)acetamide]
CD90 effect (relative expansive effect on CD34+/CD133+/CD90+ cells) ([1]; sample compound 8 μM): + (x < 1.44) | CD133 effect (relative expansive effect on CD34+/CD133+ cells) ([1]; sample compound 8 μM): + (x < 1.44) | CD90 effect (relative expansive effect on CD34+/CD133+/CD90+ cells) ([2]; sample compound 8 μM): ++ (0.2 ≤ x < 0.55) | CD133 effect (relative expansive effect on CD34+/CD133+ cells) ([2]; sample compound 8 μM): ++ (0.2 ≤ x < 0.55)

CC(C)(C)C(=O)Nc1ccc2c(c1)C(=O)c1c(O)cccc1-2 [Compound 1.006]
CD90 effect (relative expansive effect on CD34+/CD133+/CD90+ cells) ([1]; sample compound 2 μM): ++ (1.44 ≤ x < 1.8) | CD133 effect (relative expansive effect on CD34+/CD133+ cells) ([1]; sample compound 2 μM): ++ (1.44 ≤ x < 1.8) | CD90 effect (relative expansive effect on CD34+/CD133+/CD90+ cells) ([2]; sample compound 1 μM): ++++ (0.9 ≤ x < 1.25) | CD133 effect (relative expansive effect on CD34+/CD133+ cells) ([2]; sample compound 1 μM): +++ (0.55 ≤ x < 0.9)

ER50891 [reference compound]
fold increase levels of HSC populations on addition of ER50891 ([3]; ER50891 100 nM added to Compound 1.008 250 nM (+1.008/+ER conditions), compared with +1.008 alone): even further improved
